In patent US12590070B2, “Adamantane derivatives as inhibitors of focal adhesion kinase” (SAMJIN PHARMACEUTICAL CO., LTD., priority 2019, dated 2026):

What was measured:
Format in all cases: biochemical
Conditions in all cases: ADP-Glo Kinase Assay Kit
InsR = target: T1, InsR (Homo sapiens, UniProt P06213); assay: ADP-Glo Kinase Assay, InsR
T1 construct: purchased Promega V9401
Protocol: (§1) Briefly, a kinase test was performed and quantified according to the manufacturer's instructions after treating the adamantane derivative compound of the present invention by using the ADP-Glo™ Kinase Assay Kit (FAK, Promega, V1971; Pyk2, Promega, V4083; InsR, Promega, V9401) containing each kinase of Promega.

FAK = FAK (Homo sapiens, UniProt Q05397); assay: ADP-Glo Kinase Assay, FAK; set-up: purchased Promega V1971
FAK, sequence (Q05397 whole entry): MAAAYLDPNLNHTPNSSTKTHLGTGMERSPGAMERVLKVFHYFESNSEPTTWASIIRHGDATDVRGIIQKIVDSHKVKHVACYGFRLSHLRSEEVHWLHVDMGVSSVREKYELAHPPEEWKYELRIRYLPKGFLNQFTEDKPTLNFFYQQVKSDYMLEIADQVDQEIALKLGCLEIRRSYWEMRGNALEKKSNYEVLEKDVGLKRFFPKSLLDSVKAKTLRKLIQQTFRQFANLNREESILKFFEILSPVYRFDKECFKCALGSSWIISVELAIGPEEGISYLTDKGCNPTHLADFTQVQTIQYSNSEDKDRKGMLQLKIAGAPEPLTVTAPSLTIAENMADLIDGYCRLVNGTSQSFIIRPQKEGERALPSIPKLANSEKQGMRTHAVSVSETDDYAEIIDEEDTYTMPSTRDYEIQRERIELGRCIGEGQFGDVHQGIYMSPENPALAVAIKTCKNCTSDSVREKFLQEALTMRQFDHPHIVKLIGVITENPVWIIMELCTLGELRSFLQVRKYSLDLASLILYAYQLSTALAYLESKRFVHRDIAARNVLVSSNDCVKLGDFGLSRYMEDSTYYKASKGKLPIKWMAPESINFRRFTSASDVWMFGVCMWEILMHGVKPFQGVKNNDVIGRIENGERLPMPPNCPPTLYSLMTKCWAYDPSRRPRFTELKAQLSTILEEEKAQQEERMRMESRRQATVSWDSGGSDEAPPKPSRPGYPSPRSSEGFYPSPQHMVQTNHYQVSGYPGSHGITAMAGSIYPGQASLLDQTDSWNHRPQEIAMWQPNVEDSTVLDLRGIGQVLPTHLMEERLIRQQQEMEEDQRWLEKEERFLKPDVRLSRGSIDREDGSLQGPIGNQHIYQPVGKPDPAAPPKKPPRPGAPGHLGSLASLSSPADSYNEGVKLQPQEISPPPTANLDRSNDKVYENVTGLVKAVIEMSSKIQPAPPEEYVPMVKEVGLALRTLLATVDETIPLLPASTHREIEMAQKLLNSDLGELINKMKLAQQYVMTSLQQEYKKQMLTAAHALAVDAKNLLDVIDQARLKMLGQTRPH
Protocol: as §1

Pyk2 = target: T2, Pyk2 (Homo sapiens, UniProt Q14289); assay: ADP-Glo Kinase Assay, Pyk2
T2 construct: purchased Promega V4083
T2 sequence (Q14289 whole entry): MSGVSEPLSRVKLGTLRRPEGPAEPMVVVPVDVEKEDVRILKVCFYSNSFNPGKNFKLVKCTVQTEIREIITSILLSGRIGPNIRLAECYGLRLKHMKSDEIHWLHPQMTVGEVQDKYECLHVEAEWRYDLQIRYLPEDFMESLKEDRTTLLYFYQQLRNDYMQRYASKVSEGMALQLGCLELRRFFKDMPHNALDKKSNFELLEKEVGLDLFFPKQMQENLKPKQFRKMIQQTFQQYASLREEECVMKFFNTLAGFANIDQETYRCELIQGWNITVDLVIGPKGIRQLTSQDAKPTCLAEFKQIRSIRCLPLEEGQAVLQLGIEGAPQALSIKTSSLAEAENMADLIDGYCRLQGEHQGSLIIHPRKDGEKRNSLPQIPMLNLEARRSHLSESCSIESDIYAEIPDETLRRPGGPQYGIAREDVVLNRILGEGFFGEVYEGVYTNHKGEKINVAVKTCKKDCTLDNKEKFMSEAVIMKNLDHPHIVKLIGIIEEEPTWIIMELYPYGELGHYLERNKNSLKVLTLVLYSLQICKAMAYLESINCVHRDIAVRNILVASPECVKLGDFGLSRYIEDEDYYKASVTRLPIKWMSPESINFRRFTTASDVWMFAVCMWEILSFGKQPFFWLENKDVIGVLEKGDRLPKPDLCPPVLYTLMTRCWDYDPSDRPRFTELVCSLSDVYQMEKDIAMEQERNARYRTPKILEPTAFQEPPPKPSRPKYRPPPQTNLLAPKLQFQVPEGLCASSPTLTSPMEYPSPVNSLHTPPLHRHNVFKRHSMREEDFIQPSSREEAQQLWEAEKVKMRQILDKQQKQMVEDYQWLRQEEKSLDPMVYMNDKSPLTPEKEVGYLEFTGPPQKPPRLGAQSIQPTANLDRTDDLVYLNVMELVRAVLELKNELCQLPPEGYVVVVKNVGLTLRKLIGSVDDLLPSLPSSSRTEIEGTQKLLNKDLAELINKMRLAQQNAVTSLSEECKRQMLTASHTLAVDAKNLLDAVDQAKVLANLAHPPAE
Protocol: as §1

T1 sequence (P06213 28-1382): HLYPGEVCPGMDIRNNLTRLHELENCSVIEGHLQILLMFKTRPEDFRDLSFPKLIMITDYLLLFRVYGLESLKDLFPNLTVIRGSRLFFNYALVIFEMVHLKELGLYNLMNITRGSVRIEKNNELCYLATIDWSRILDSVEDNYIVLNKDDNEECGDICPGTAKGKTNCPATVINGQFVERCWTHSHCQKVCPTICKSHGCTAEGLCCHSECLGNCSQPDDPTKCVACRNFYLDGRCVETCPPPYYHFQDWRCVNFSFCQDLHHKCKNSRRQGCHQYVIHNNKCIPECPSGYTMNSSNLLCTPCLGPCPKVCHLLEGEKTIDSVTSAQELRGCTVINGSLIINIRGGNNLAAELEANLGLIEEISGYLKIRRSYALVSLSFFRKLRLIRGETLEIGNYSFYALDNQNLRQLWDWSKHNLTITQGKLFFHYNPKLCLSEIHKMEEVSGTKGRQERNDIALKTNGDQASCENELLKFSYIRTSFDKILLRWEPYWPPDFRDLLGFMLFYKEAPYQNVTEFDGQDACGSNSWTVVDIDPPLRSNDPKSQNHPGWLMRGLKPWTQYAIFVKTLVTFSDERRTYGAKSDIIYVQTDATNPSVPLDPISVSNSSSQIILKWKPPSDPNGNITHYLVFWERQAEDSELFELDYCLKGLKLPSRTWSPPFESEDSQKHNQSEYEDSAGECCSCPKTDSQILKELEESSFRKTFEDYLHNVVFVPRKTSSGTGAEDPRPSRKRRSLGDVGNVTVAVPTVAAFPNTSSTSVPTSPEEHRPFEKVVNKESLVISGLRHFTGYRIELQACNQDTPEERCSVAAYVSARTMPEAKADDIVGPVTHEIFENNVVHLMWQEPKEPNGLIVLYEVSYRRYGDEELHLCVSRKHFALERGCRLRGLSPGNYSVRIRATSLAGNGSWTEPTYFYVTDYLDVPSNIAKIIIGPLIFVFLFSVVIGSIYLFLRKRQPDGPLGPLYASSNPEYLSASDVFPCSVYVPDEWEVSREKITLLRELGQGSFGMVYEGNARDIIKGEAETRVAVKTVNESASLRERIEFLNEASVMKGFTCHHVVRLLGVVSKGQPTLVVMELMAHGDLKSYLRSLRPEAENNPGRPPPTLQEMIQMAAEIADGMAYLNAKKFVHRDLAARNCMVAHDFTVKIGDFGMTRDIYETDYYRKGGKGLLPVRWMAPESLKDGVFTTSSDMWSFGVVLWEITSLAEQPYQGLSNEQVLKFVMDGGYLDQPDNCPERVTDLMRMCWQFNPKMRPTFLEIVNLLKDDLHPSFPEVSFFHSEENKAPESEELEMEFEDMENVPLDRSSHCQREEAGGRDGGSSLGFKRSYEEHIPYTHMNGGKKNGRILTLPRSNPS

SMILES	IC50 (InsR) [µM]	IC50 (FAK) [µM]	IC50 (Pyk2) [µM]
CNC(=O)c1cccc(C)c1Nc1nc(Nc2ccc(OC3CCN(C4C5CC6CC(C5)CC4C6)CC3)cc2OC)ncc1C(F)(F)F (stereo not drawn) [Compound 9, 2-((2-((4-((1-(adamantan-2-yl)piperidin-4-yl)oxy)-2-methoxyphenyl)amino)-5-(trifluoromethyl)pyrimidin-4-yl)amino)-N,3-dimethylbenzamide]	> 10	0.0981	
CNC(=O)c1cccc(C)c1Nc1nc(Nc2ccc(O[C@]34CC5CC(C3)[C@@H](N3CC[C@H](NC(C)=O)C3)C(C5)C4)cc2OC)ncc1C(F)(F)F [Compound 14, 2-((2-((4-(((trans)-4-((S)-3-acetamidopyrrolidin-1-yl)adamantan-1-yl)oxy)-2-methoxyphenyl)amino)-5-(trifluoromethyl)pyrimidin-4-yl)amino)-N,3-dimethylbenzamide]		0.057	
CNC(=O)c1cccc(C)c1Nc1nc(Nc2ccc(OC3C4CC5CC3CC(C(=O)NC)(C5)C4)cc2OC)ncc1C(F)(F)F (stereo not drawn) [Compound 18, 4-(3-methoxy-4-((4-((2-methyl-6-(methylcarbamoyl)phenyl)amino)-5-(trifluoromethyl)pyrimidin-2-yl)amino)phenoxy)-N-methyladamantan-1-carboxamide]		0.0929	
CNC(=O)c1cccc(C)c1Nc1nc(Nc2ccc(OC3C4CC5CC3CC(C(=O)N3CCOCC3)(C5)C4)cc2OC)ncc1C(F)(F)F (stereo not drawn) [Compound 19, 2-((2-((2-methoxy-4-((5-(morpholin-4-carbonyl)adamantan-2-yl)oxy)phenyl)amino)-5-(trifluoromethyl)pyrimidin-4-yl)amino)-N,3-dimethylbenzamide]		0.127	
CNC(=O)c1cccc(C)c1Nc1nc(Nc2ccc(NC3C4CC5CC3CC(C(=O)N3CCOCC3)(C5)C4)cc2OC)ncc1C(F)(F)F (stereo not drawn) [Compound 22, 2-((2-((2-methoxy-4-((5-(morpholin-4-carbonyl)adamantan-2-yl)amino)phenyl)amino)-5-(trifluoromethyl)pyrimidin-4-yl)amino)-N,3-dimethylbenzamide]		0.057	
CNC(=O)c1cccc(C)c1Nc1nc(Nc2ccc(NC(=O)[C@]34CC5CC(C3)[C@H](N3CC[C@H](NC(C)=O)C3)C(C5)C4)cc2OC)ncc1C(F)(F)F [Compound 28, (cis)-4-((S)-3-acetamidopyrrolidin-1-yl)-N-(3-methoxy-4-((4-((2-methyl-6-(methylcarbamoyl)phenyl)amino)-5-(trifluoromethyl)pyrimidin-2-yl)amino)phenyl) adamantan-1-carboxamide]	> 10	0.029	0.0645
CNC(=O)c1cccc(C)c1Nc1nc(Nc2ccc(N3CCN([C@H]4C5CC6CC4C[C@@](O)(C6)C5)CC3)cc2OC)ncc1Cl [Compound 36, 2-((5-chloro-2-((4-(4-((trans)-5-hydroxyadamantan-2-yl)piperazin-1-yl)-2-methoxyphenyl)amino)-pyrimidin-4-yl)amino)-N,3-dimethylbenzamide]		0.0614	
CNC(=O)c1cccc(C)c1Nc1nc(Nc2ccc(N3CCN([C@H]4C5CC6CC4C[C@](C(=O)OC)(C6)C5)CC3)cc2OC)ncc1C(F)(F)F [Compound 37, methyl (trans)-4-(4-(3-methoxy-4-((4-((2-methyl-6-(methylcarbamoyl)phenyl)amino)-5-(trifluoromethyl)pyrimidin-2-yl)amino)phenyl)piperazin-1-yl) adamantan-1-carboxylate]		0.0436	
CNC(=O)c1cccc(C)c1Nc1nc(Nc2ccc(N3CCN([C@H]4C5CC6CC4C[C@@](C(=O)OC)(C6)C5)CC3)cc2OC)ncc1C(F)(F)F [Compound 38, methyl (cis)-4-(4-(3-methoxy-4-((4-((2-methyl-6-(methylcarbamoyl)phenyl)amino)-5-(trifluoromethyl)pyrimidin-2-yl)amino)phenyl)piperazin-1-yl) adamantan-1-carboxylate]		0.07	
CNC(=O)c1cccc(C)c1Nc1nc(Nc2ccc(N3CCN([C@H]4C5CC6CC4C[C@](C(=O)O)(C6)C5)CC3)cc2OC)ncc1C(F)(F)F [Compound 39, (trans)-4-(4-(3-methoxy-4-((4-((2-methyl-6-(methylcarbamoyl)phenyl)amino)-5-(trifluoromethyl)pyrimidin-2-yl)amino)phenyl)piperazin-1-yl) adamantan-1-carboxylic acid]		0.058	

Results, then the compound that gave them:

IC50 (InsR) [µM]	IC50 (FAK) [µM]	IC50 (Pyk2) [µM]	SMILES
3.8		0.0182	CNC(=O)c1cccc(C)c1Nc1nc(Nc2ccc(NC(=O)[C@]34CC5CC(C3)[C@@H](N3CC[C@H](N)C3)C(C5)C4)cc2OC)ncc1C(F)(F)F [Compound 30, (trans)-4-((S)-3-aminopyrrolidin-1-yl)-N-(3-methoxy-4-((4-((2-methyl-6-(methylcarbamoyl)phenyl)amino)-5-(trifluoromethyl)pyrimidin-2-yl)amino)phenyl) adamantan-1-carboxamide]
2.15		0.154	CNC(=O)c1cccc(C)c1Nc1nc(Nc2ccc(C3CCN([C@H]4C5CC6CC4C[C@](O)(C6)C5)CC3)cc2OC)ncc1C(F)(F)F [Compound 32, 2-((2-((4-(1-((trans)-5-hydroxyadamantan-2-yl)piperidin-4-yl)-2-methoxyphenyl)amino)-5-(trifluoromethyl)pyrimidin-4-yl)amino)-N,3-dimethylbenzamide]
2.05		0.101	CNC(=O)c1cccc(C)c1Nc1nc(Nc2ccc(C3CCN([C@H]4C5CC6CC4C[C@@](O)(C6)C5)CC3)cc2OC)ncc1C(F)(F)F [Compound 33, 2-((2-((4-(1-((cis)-5-hydroxyadamantan-2-yl)piperidin-4-yl)-2-methoxyphenyl)amino)-5-(trifluoromethyl)pyrimidin-4-yl)amino)-N,3-dimethylbenzamide]
1.64		0.427	COc1cc(C2CCN([C@H]3C4CC5CC3C[C@](O)(C5)C4)CC2)ccc1Nc1ncc(C(F)(F)F)c(Nc2c(C)cccc2C(N)=O)n1 [Compound 34, 2-((2-((4-(1-((trans)-5-hydroxyadamantan-2-yl)piperidin-4-yl)-2-methoxyphenyl)amino)-5-(trifluoromethyl)pyrimidin-4-yl)amino)-3-methylbenzamide]
1.44		0.418	COc1cc(C2CCN([C@H]3C4CC5CC3C[C@](O)(C5)C4)CC2)ccc1Nc1ncc(C(F)(F)F)c(Nc2c(C)cccc2C(N)=O)n1 [Compound 35, 2-((2-((4-(1-((cis)-5-hydroxyadamantan-2-yl)piperidin-4-yl)-2-methoxyphenyl)amino)-5-(trifluoromethyl)pyrimidin-4-yl)amino)-3-methylbenzamide]
	0.0583		CNC(=O)c1cccc(C)c1Nc1nc(Nc2ccc(N3CCN([C@H]4C5CC6CC4C[C@](C(=O)O)(C6)C5)CC3)cc2OC)ncc1C(F)(F)F [Compound 40, (cis)-4-(4-(3-methoxy-4-((4-((2-methyl-6-(methylcarbamoyl)phenyl)amino)-5-(trifluoromethyl)pyrimidin-2-yl)amino)phenyl)piperazin-1-yl) adamantan-1-carboxylic acid]
